Measured values reported in paper PMC11859928, “Design, Synthesis, and Antiproliferative Activity of Novel Indole/1,2,4-Triazole Hybrids as Tubulin Polymerization Inhibitors” (Pharmaceuticals, 2025).
Read-outs that look alike come from different tables or passages of the source.

Columns and labels:
T-47D = assay: NCI five-dose assay; type: cell-based, human; conditions: Breast cancer
HL-60(TB) = assay: NCI five-dose assay; type: cell-based, human; conditions: Leukemia
NCI-H522 = assay: NCI five-dose assay; type: cell-based, human; conditions: NCI-H522, Non-small cell lung cancer
CNS cancer subpanel = assay: NCI five-dose assay, subpanel mean; type: cell-based, human; conditions: Homo sapiens; average sensitivity of all cell lines of the CNS cancer subpanel; read-out: GI50 Subpanel MID b
MDA-MB-468 = assay: NCI five-dose assay; type: cell-based, human; conditions: MDA-MB-468, Breast cancer
PC-3 = assay: NCI five-dose assay; type: cell-based, human; conditions: PC-3, Prostate cancer
SK-OV-3 = assay: NCI five-dose assay; type: cell-based, human; conditions: SK-OV-3, Ovarian cancer
UACC-62 = assay: NCI five-dose assay; type: cell-based, human; conditions: UACC-62, Melanoma
HCT-15 = assay: NCI five-dose assay; type: cell-based, human; conditions: HCT-15, Colon cancer
MDA/MB-231-ATCC = assay: NCI five-dose assay; type: cell-based, human; conditions: Breast cancer
SNB-19 = assay: NCI five-dose assay; type: cell-based, human; conditions: SNB-19, CNS cancer
UO-31 = assay: NCI five-dose assay; type: cell-based, human; conditions: UO-31, Renal cancer
BT-549 = assay: NCI five-dose assay; type: cell-based, human; conditions: BT-549, Breast cancer
NCI/ADR-RES = assay: NCI five-dose assay; type: cell-based, human; conditions: Ovarian cancer
MCF7 = assay: NCI five-dose assay; type: cell-based, human; conditions: MCF7, Breast cancer
HCC-2998 = assay: NCI five-dose assay; type: cell-based, human; conditions: HCC-2998, Colon cancer
tubulin = target: T1, tubulin (Sus scrofa, UniProt P02550+P02554); assay: Tubulin polymerization inhibitory assay; type: biochemical
T1 construct: purchased Cytoskeleton Inc., Denver, CO, USA
T1 sequence (P02554 whole entry): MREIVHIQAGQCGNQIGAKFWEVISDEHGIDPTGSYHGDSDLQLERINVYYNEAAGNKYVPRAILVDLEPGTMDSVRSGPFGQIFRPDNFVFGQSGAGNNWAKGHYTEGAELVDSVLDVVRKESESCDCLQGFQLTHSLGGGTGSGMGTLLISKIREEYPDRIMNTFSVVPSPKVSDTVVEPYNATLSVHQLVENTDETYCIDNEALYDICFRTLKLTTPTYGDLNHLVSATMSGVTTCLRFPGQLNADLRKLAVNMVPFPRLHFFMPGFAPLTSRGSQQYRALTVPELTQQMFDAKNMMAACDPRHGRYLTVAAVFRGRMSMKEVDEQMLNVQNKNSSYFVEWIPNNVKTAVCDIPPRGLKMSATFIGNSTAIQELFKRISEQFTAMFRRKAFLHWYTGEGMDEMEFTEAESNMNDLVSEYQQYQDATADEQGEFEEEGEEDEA
T1 sequence (P02550 whole entry): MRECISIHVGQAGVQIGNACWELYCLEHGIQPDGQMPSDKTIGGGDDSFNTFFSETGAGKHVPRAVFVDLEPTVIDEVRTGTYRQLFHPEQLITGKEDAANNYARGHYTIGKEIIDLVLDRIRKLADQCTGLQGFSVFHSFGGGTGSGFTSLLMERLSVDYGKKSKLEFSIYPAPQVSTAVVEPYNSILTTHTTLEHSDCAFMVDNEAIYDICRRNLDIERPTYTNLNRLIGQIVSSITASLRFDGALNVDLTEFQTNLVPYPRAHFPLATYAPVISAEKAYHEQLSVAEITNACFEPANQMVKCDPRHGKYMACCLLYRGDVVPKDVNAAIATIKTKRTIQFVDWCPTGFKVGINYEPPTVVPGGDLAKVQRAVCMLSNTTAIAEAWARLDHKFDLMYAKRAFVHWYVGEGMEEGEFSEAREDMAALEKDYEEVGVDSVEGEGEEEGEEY
Description: The substances’ effects on tubulin polymerization were examined using the Tubulin Polymerization Assay Kit (Cytoskeleton Inc., Denver, CO, USA) according to the supplier’s instructions, with details described in Appendix A..
The activity of compounds on tubulin polymerization was investigated using the Tubulin Polymerization Assay Kit (Cytoskeleton Inc., Denver, CO, USA), which works via fluorescent reporter enhancement. […] Docetaxel and vincristine (Apoteket AB, Stockholm, Sweden) served as positive stabilizing and destabilizing controls. Both were used at a 3 µM concentration in PBS.

LOX IMVI = assay: NCI five-dose assay; type: cell-based, human; conditions: Melanoma
HCT-116 = assay: NCI five-dose assay; type: cell-based, human; conditions: HCT-116, Colon cancer
HT29 = assay: NCI five-dose assay; type: cell-based, human; conditions: HT29, Colon cancer
UACC-257 = assay: NCI five-dose assay; type: cell-based, human; conditions: UACC-257, Melanoma
786-0 = assay: NCI five-dose assay; type: cell-based, human; conditions: 786-0, Renal cancer
SN12C = assay: NCI five-dose assay; type: cell-based, human; conditions: Renal cancer
[1] = test system: Non-small cell lung cancer subpanel; assay: NCI five-dose assay, subpanel mean; type: cell-based, human
NCI-H460 = assay: NCI five-dose assay; type: cell-based, human; conditions: NCI-H460, Non-small cell lung cancer
[2] = Homo sapiens, 48 h, read-out: LC50 (the source's name)
[3] = Homo sapiens, read-out: GI50 Conc. per Cell Lines

Question: Which results are given for `O/N=C(\CSc1nnc(-c2c[nH]c3ccccc23)n1-c1ccccc1)c1ccc(Br)cc1` [Compound 7i, (Z)-2-((5-(1H-Indol-3-yl)-4-phenyl-4H-1,2,4-triazol-3-yl)thio)-1-(4-bromophenyl) Ethanone Oxime]?
Answer: TGI Conc. per Cell Lines (T-47D): 17.20 µM; LC50 (concentration killing 50% of cells) (T-47D; Homo sapiens, T47D, 48 h): > 100 µM; GI50 (T-47D; Homo sapiens, T47D, read-out: GI50 Conc. per Cell Lines): 3.51 µM; CC50 (HL-60(TB); [2]): > 100 µM; GI50 (HL-60(TB); [3]): 1.92 µM; TGI Conc. per Cell Lines (HL-60(TB)): 4.55 µM; CC50 (NCI-H522; [2]): 61.6 µM; GI50 (NCI-H522; [3]): 2.52 µM; TGI Conc. per Cell Lines (NCI-H522): 7.70 µM; GI50 (CNS cancer subpanel): 3.15 µM; LC50 (MDA-MB-468; Homo sapiens, 48 h): 6.32 µM; GI50 (MDA-MB-468; [3]): 1.72 µM; TGI Conc. per Cell Lines (MDA-MB-468): 3.30 µM; CC50 (PC-3; [2]): > 100 µM; GI50 (PC-3; [3]): 2.15 µM; TGI Conc. per Cell Lines (PC-3): 4.96 µM; CC50 (SK-OV-3; [2]): 27.4 µM; GI50 (SK-OV-3; [3]): 2.53 µM; TGI Conc. per Cell Lines (SK-OV-3): 6.03 µM; CC50 (UACC-62; [2]): 7.93 µM; GI50 (UACC-62; [3]): 1.77 µM; TGI Conc. per Cell Lines (UACC-62): 3.74 µM; TGI Conc. per Cell Lines (HCT-15): 4.72 µM; CC50 (HCT-15; [2]): 12.1 µM; GI50 (HCT-15; [3]): 2.11 µM; TGI Conc. per Cell Lines (MDA/MB-231-ATCC): 3.26 µM; LC50 (MDA/MB-231-ATCC; Homo sapiens, 48 h): 6.21 µM; GI50 (MDA/MB-231-ATCC; [3]): 1.71 µM; CC50 (SNB-19; [2]): 84.5 µM; GI50 (SNB-19; [3]): 4.32 µM; TGI Conc. per Cell Lines (SNB-19): 19.80 µM; CC50 (UO-31; [2]): 34.3 µM; GI50 (UO-31; [3]): 2.29 µM; TGI Conc. per Cell Lines (UO-31): 7.81 µM; TGI Conc. per Cell Lines (BT-549): 7.25 µM; CC50 (BT-549; [2]): 34.2 µM; GI50 (BT-549; [3]): 3.16 µM; LC50 (NCI/ADR-RES; Homo sapiens, 48 h): 8.08 µM; GI50 (NCI/ADR-RES; [3]): 1.9 µM; TGI Conc. per Cell Lines (NCI/ADR-RES): 3.92 µM; LC50 (MCF7; Homo sapiens, 48 h): 63.6 µM; GI50 (MCF7; [3]): 3.49 µM; TGI Conc. per Cell Lines (MCF7): 15.3 µM; TGI Conc. per Cell Lines (HCC-2998): 12.30 µM; CC50 (HCC-2998; [2]): 35.8 µM; GI50 (HCC-2998; [3]): 3.36 µM; %inhibition (tubulin; conc 0.01 (unit not given; IC50 from this curve in µg/ml)): 6.76%; %inhibition (tubulin; conc 0.1 (unit not given; IC50 from this curve in µg/ml)): 21%; %inhibition (tubulin; conc 1 (unit not given; IC50 from this curve in µg/ml)): 47.4%; %inhibition (tubulin; conc 10 (unit not given; IC50 from this curve in µg/ml)): 68.5%; %inhibition (tubulin; conc 100 (unit not given; IC50 from this curve in µg/ml)): 87%; IC50 (tubulin; read-out: Tub. IC50±SD (converted)): 3.03 µM; IC50 (tubulin; read-out: Tubulin Inhibitory Effect, IC50): 3.03 ± 0.11 µM; CC50 (LOX IMVI; [2]): 5.69 µM; GI50 (LOX IMVI; [3]): 1.71 µM; TGI Conc. per Cell Lines (LOX IMVI): 3.12 µM; TGI Conc. per Cell Lines (HCT-116): 17.40 µM; CC50 (HCT-116; [2]): > 100 µM; GI50 (HCT-116; [3]): 3.45 µM; TGI Conc. per Cell Lines (HT29): 5.03 µM; CC50 (HT29; Homo sapiens, HT-29, 48 h, read-out: LC50 (the source's name)): 17.8 µM; GI50 (HT29; Homo sapiens, HT-29, read-out: GI50 Conc. per Cell Lines): 2.23 µM; CC50 (UACC-257; [2]): 72.6 µM; GI50 (UACC-257; [3]): 3.87 µM; TGI Conc. per Cell Lines (UACC-257): 17.50 µM; TGI Conc. per Cell Lines (786-0): 27.00 µM; LC50 (50% lethal concentration) (786-0; Homo sapiens, 48 h): 93.4 µM; GI50 (786-0; [3]): 6.85 µM; CC50 (SN12C; [2]): 30.1 µM; GI50 (SN12C; [3]): 2.52 µM; TGI Conc. per Cell Lines (SN12C): 7.97 µM; GI50 ([1]; Homo sapiens, average sensitivity of all cell lines of the Non-small cell lung cancer subpanel, read-out: GI50 Subpanel MID b): 3.23 µM; GI50 Selectivity Ratio (MID a/MID b) ([1]; Non-small cell lung cancer subpanel): 0.87; CC50 (NCI-H460; [2]): 68.4 µM; GI50 (NCI-H460; [3]): 3.53 µM; TGI Conc. per Cell Lines (NCI-H460): 12.90 µM
